Key:
Assay in all cases: relative viability (nuclei count vs DMSO), 5 days (fraction); higher = more cells survive
NCI-H1666 = system: NCI-H1666
Summary of the method: (§1)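 The day after seeding in 1536-well plates, lung cancer cell lines were treated by pin tool with a single drug, or with a fixed anchor-drug dose together with five library-drug doses (not always all listed) in √10 steps. After 5 days, a combined fix-and-stain solution (final 0.05% Triton X-100, 1% formaldehyde, 1 ug/ml Hoechst) was added. Nuclei counted on 4× images gave relative viability as treated counts over vehicle counts, reported as the median of duplicate plates.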

ABC-1 = system: ABC-1
Summary of the method: as §1

NCI-H1355 = system: NCI-H1355
Summary of the method: as §1

NCI-H727 = system: NCI-H727
Summary of the method: as §1

NCI-H2170 = system: NCI-H2170
Summary of the method: as §1

NCI-H460 = system: NCI-H460
Summary of the method: as §1

SW 1573 = system: SW 1573
Summary of the method: as §1

NCI-H520 = system: NCI-H520
Summary of the method: as §1

NCI-H647 = system: NCI-H647
Summary of the method: as §1

NCI-H441 = system: NCI-H441
Summary of the method: as §1

NCI-H1944 = system: NCI-H1944
Summary of the method: as §1

NCI-H1755 = system: NCI-H1755
Summary of the method: as §1

NCI-H1993 = system: NCI-H1993
Summary of the method: as §1

NCI-H2126 = system: NCI-H2126
Summary of the method: as §1

SK-LU-1 = system: SK-LU-1
Summary of the method: as §1

PC-14 = system: PC-14
Summary of the method: as §1

EMC-BAC-2 = system: EMC-BAC-2
Summary of the method: as §1

LCLC-97TM1 = system: LCLC-97TM1
Summary of the method: as §1

NCI-H1975 = system: NCI-H1975
Summary of the method: as §1

NCI-H2009 = system: NCI-H2009
Summary of the method: as §1

PC-3 [JPC-3] = system: PC-3 [JPC-3]
Summary of the method: as §1

NCI-H2347 = system: NCI-H2347
Summary of the method: as §1

Cc1cnc(-c2cnc(NCCNc3ccc(C#N)cn3)nc2-c2ccc(Cl)cc2Cl)[nH]1 + C[C@@H](Oc1cc(-c2cnn(C3CCNCC3)c2)cnc1N)c1c(Cl)ccc(F)c1Cl [Crizotinib] (partner 1 µM)
relative viability (NCI-H1666; first compound 0.08 µM): 0.981
relative viability (NCI-H1666; first compound 0.253 µM): 0.822
relative viability (NCI-H1666; first compound 0.8 µM): 1.26
relative viability (NCI-H1666; first compound 2.53 µM): 1.19
relative viability (ABC-1; first compound 0.08 µM): 1.03
relative viability (ABC-1; first compound 0.253 µM): 0.831
relative viability (ABC-1; first compound 0.8 µM): 1.23
relative viability (ABC-1; first compound 2.53 µM): 1.05
relative viability (NCI-H1355; first compound 0.08 µM): 1.1
relative viability (NCI-H1355; first compound 0.253 µM): 0.9
relative viability (NCI-H1355; first compound 0.8 µM): 1
relative viability (NCI-H1355; first compound 2.53 µM): 0.992
relative viability (NCI-H727; first compound 0.08 µM): 1.67
relative viability (NCI-H727; first compound 0.253 µM): 0.771
relative viability (NCI-H727; first compound 0.8 µM): 0.797
relative viability (NCI-H727; first compound 2.53 µM): 0.676
relative viability (NCI-H2170; first compound 0.08 µM): 1.25
relative viability (NCI-H2170; first compound 0.253 µM): 1.07
relative viability (NCI-H2170; first compound 0.8 µM): 1.26
relative viability (NCI-H2170; first compound 2.53 µM): 1.06
relative viability (NCI-H460; first compound 0.08 µM): 1.03
relative viability (NCI-H460; first compound 0.253 µM): 0.857
relative viability (NCI-H460; first compound 0.8 µM): 0.858
relative viability (NCI-H460; first compound 2.53 µM): 0.776
relative viability (SW 1573; first compound 0.08 µM): 0.932
relative viability (SW 1573; first compound 0.253 µM): 0.879
relative viability (SW 1573; first compound 0.8 µM): 0.785
relative viability (SW 1573; first compound 2.53 µM): 0.772
relative viability (NCI-H520; first compound 0.08 µM): 0.901
relative viability (NCI-H520; first compound 0.253 µM): 0.75
relative viability (NCI-H520; first compound 0.8 µM): 0.765
relative viability (NCI-H520; first compound 2.53 µM): 0.755
relative viability (NCI-H647; first compound 0.08 µM): 1.06
relative viability (NCI-H647; first compound 0.253 µM): 0.783
relative viability (NCI-H647; first compound 0.8 µM): 1.07
relative viability (NCI-H647; first compound 2.53 µM): 0.927
relative viability (NCI-H441; first compound 0.08 µM): 0.845
relative viability (NCI-H441; first compound 0.253 µM): 0.528
relative viability (NCI-H441; first compound 0.8 µM): 0.713
relative viability (NCI-H441; first compound 2.53 µM): 0.791
relative viability (NCI-H1944; first compound 0.08 µM): 1.11
relative viability (NCI-H1944; first compound 0.8 µM): 1.16
relative viability (NCI-H1944; first compound 2.53 µM): 1.1
relative viability (NCI-H1755; first compound 0.08 µM): 0.853
relative viability (NCI-H1755; first compound 0.253 µM): 0.856
relative viability (NCI-H1755; first compound 0.8 µM): 0.824
relative viability (NCI-H1755; first compound 2.53 µM): 0.804
relative viability (NCI-H1993; first compound 0.08 µM): 0.804
relative viability (NCI-H1993; first compound 0.253 µM): 0.861
relative viability (NCI-H1993; first compound 0.8 µM): 0.884
relative viability (NCI-H1993; first compound 2.53 µM): 0.954
relative viability (NCI-H2126; first compound 0.08 µM): 0.996
relative viability (NCI-H2126; first compound 0.253 µM): 1.02
relative viability (NCI-H2126; first compound 0.8 µM): 0.968
relative viability (NCI-H2126; first compound 2.53 µM): 1.01
relative viability (SK-LU-1; first compound 0.08 µM): 1.01
relative viability (SK-LU-1; first compound 0.253 µM): 0.918
relative viability (SK-LU-1; first compound 0.8 µM): 1.17
relative viability (SK-LU-1; first compound 2.53 µM): 1.3
relative viability (PC-14; first compound 0.08 µM): 0.911
relative viability (PC-14; first compound 0.253 µM): 0.811
relative viability (PC-14; first compound 0.8 µM): 0.896
relative viability (PC-14; first compound 2.53 µM): 0.807
relative viability (EMC-BAC-2; first compound 0.08 µM): 0.841
relative viability (EMC-BAC-2; first compound 0.253 µM): 0.739
relative viability (EMC-BAC-2; first compound 0.8 µM): 0.814
relative viability (EMC-BAC-2; first compound 2.53 µM): 0.703
relative viability (LCLC-97TM1; first compound 0.08 µM): 0.338
relative viability (LCLC-97TM1; first compound 0.253 µM): 0.401
relative viability (LCLC-97TM1; first compound 0.8 µM): 0.362
relative viability (LCLC-97TM1; first compound 2.53 µM): 0.349
relative viability (NCI-H1975; first compound 0.08 µM): 0.968
relative viability (NCI-H1975; first compound 0.253 µM): 0.907
relative viability (NCI-H1975; first compound 0.8 µM): 0.906
relative viability (NCI-H1975; first compound 2.53 µM): 0.569
relative viability (NCI-H2009; first compound 0.08 µM): 1.09
relative viability (NCI-H2009; first compound 0.253 µM): 0.958
relative viability (NCI-H2009; first compound 0.8 µM): 1
relative viability (NCI-H2009; first compound 2.53 µM): 0.892
relative viability (PC-3 [JPC-3]; first compound 0.08 µM): 0.936
relative viability (PC-3 [JPC-3]; first compound 0.253 µM): 0.894
relative viability (PC-3 [JPC-3]; first compound 0.8 µM): 0.999
relative viability (PC-3 [JPC-3]; first compound 2.53 µM): 0.953
relative viability (NCI-H2347; first compound 0.08 µM): 0.734
relative viability (NCI-H2347; first compound 0.253 µM): 0.632
relative viability (NCI-H2347; first compound 0.8 µM): 0.753
relative viability (NCI-H2347; first compound 2.53 µM): 0.741
